Measured values taken from patent US12110299B2, “Thiazole derivatives and pharmaceutically acceptable salts thereof” (YUNGJIN PHARM. CO., LTD., priority 2018, dated 2024).

What was measured:
MDA-MB-468 cells = test: Anti-proliferative effect on MDA-MB-468 cells, IC50 (MTT); assay type: cell-based; conditions: Homo sapiens, MDA-MB-468, 72 h
Experimental: The compounds of the present invention were tested at different concentrations (from 1000 nM to 1 nM) to assess their ability for inhibiting the proliferation of MDAMB-468 cells. Cells were cultivated in RPMI 1640 (Welgene)+10% FBS (Gibco)+1% penicillin/streptomycin (Gibco) and cultured at 37° C. in a humidified chamber in the presence of 5% C02.
MDA-MB-468 cells cultured in 96-well cell culture plates were treated with the compounds of the present invention and incubated for 72 hours.

HepG2 cells = test: HepG2 cell viability assay (CCK-8); assay type: cell-based, human; conditions: Homo sapiens, HepG2, 72 h
Experimental: The ability to inhibit the proliferation of HepG2 cells, which are human hepatocellular carcinoma cells, was measured through the in vitro cell viability assay. Cells were cultured at 37° C. in a humidified condition in the presence of 5% CO2 using a culture medium of MEM (Welgene)+10% FBS (Gibco)+1% penicillin/streptomycin (Gibco). […] Cell viability was measured by CCK-8 method using tetrazolium salt, and the ability of the compounds according to the present invention to inhibit cancer cell proliferation was calculated.

Structure (SMILES) | IC50 (MDA-MB-468 cells) [nM] | IC50 (HepG2 cells) [nM]
C[C@H](C(=O)Nc1ncc(C(F)(F)F)s1)c1cccc(-c2cnc(NC(=O)/C=C/CN(C)C)cn2)c1 [Example 81, (S,E)-4-(dimethylamino)-N-(5-(3-(1-oxo-1-((5-(trifluoromethyl)thiazol-2-yl)amino)propan-2-yl)phenyl)pyrazin-2-yl)but-2-enamide] | 39 | 11
C=CC(=O)Nc1ccc(-c2cncc(C(C)C(=O)Nc3ncc(C(F)(F)F)s3)c2)cn1 (centres unmarked) [Example 82, N-(5′-(1-oxo-1-((5-(trifluoromethyl)thiazol-2-yl)amino)propan-2-yl)-[3,3′-bipyridin]-6-yl)acrylamide] | 32 | 4
C=CC(=O)Nc1ncc(-c2cncc(C(C)C(=O)Nc3ncc(C(F)(F)F)s3)c2)cc1C#N (centres unmarked) [Example 88, N-(5-cyano-5′-(1-oxo-1-((5-(trifluoromethyl)thiazol-2-yl)amino)propan-2-yl)-[3,3′-bipyridin]-6-yl)acrylamide] | 54 | 9
C[C@H](C(=O)Nc1ncc(Cl)s1)c1cccc(-c2cnc(NC(=O)/C=C/CN(C)C)cn2)c1 [Example 93, (S,E)-N-(5-(3-(1-((5-chlorothiazol-2-yl)amino)-1-oxopropan-2-yl)phenyl)pyrazin-2-yl)-4-(dimethylamino)but-2-enamide] | 38 | 21
C[C@H](C(=O)Nc1ncc(C(F)(F)F)s1)c1cccc(-c2cnc(NC(=O)/C=C/CN(C)C)c(F)c2)c1 [Example 99, (S,E)-4-(dimethylamino)-N-(3-fluoro-5-(3-(1-oxo-1-((5-(trifluoromethyl)thiazol-2-yl)amino)propan-2-yl)phenyl)pyridin-2-yl)but-2-enamide] | 23 | 5
COc1cc(-c2cccc([C@H](C)C(=O)Nc3ncc(C(F)(F)F)s3)c2)cnc1NC(=O)/C=C/CN(C)C [Example 100, (S,E)-4-(dimethylamino)-N-(3-methoxy-5-(3-(1-oxo-1-((5-(trifluoromethyl)thiazol-2-yl)amino)propan-2-yl)phenyl)pyridin-2-yl)but-2-enamide] | 56 | 8
C[C@H](C(=O)Nc1ncc(C2CCC2)s1)c1cccc(-c2cnc(NC(=O)/C=C/CN(C)C)cn2)c1 [Example 104, (S,E)-N-(5-(3-(1-((5-cyclobutylthiazol-2-yl)amino)-1-oxopropan-2-yl)phenyl)pyrazin-2-yl)-4-(dimethylamino)but-2-enamide] | 44 | 8
CC(C(=O)Nc1ncc(C(F)(F)F)s1)c1cncc(-c2ccc(NC(=O)/C=C/CN(C)C)nc2)c1 (centres unmarked) [Example 107, (E)-4-(dimethylamino)-N-(5′-(1-oxo-1-((5-(trifluoromethyl)thiazol-2-yl)amino)propan-2-yl)-[3,3′-bipyridin]-6-yl)but-2-enamide] |  | 3.1
CC(C(=O)Nc1ncc(C(F)(F)F)s1)c1cncc(-c2cnc(NC(=O)/C=C/CN(C)C)c(C#N)c2)c1 (centres unmarked) [Example 108, (E)-N-(5-cyano-5′-(1-oxo-1-((5-(trifluoromethyl)thiazol-2-yl)amino)propan-2-yl)-[3,3′-bipyridin]-6-yl)-4-(dimethylamino)but-2-enamide] | 31 | 4.6
COc1nc(-c2cccc([C@H](C)C(=O)Nc3ncc(C(F)(F)F)s3)c2)cnc1NC(=O)/C=C/CN(C)C [Example 109, (S,E)-4-(dimethylamino)-N-(3-methoxy-5-(3-(1-oxo-1-((5-(trifluoromethyl)thiazol-2-yl)amino)propan-2-yl)phenyl)pyrazin-2-yl)but-2-enamide] | 31 | 2.6
C[C@H](C(=O)Nc1ncc(C(F)(F)F)s1)c1cccc(-c2cnc3c(c2)CCN3C(=O)/C=C/CN(C)C)c1 [Example 110, (S,E)-2-(3-(1-(4-(dimethylamino)but-2-enoyl)-2,3-dihydro-1H-pyrrolo[2,3-b]pyridin-5-yl)phenyl)-N-(5-(trifluoromethyl)thiazol-2-yl)propanamide] | 74 | 17.4
C[C@H](C(=O)Nc1ncc(C(F)(F)F)s1)c1cccc(-c2cnc(NC(=O)/C=C/CN(C)C)c(C(F)(F)F)c2)c1 [Example 111, (S,E)-4-(dimethylamino)-N-(5-(3-(1-oxo-1-((5-(trifluoromethyl)thiazol-2-yl)amino)propan-2-yl)phenyl)-3-(trifluoromethyl)pyridin-2-yl)but-2-enamide] | 32 | 4
Cc1cc(-c2cccc([C@H](C)C(=O)Nc3ncc(C(F)(F)F)s3)c2)cnc1NC(=O)/C=C/CN(C)C [Example 112, (S,E)-4-(dimethylamino)-N-(3-methyl-5-(3-(1-oxo-1-((5-(trifluoromethyl)thiazol-2-yl)amino)propan-2-yl)phenyl)pyridin-2-yl)but-2-enamide] | 59 | 8.7
C[C@H](C(=O)Nc1ncc(C(F)(F)F)s1)c1cccc(-c2cnc(NC(=O)/C=C/CN(C)C)c(Cl)c2)c1 [Example 113, (S,E)-N-(3-chloro-5-(3-(1-oxo-1-((5-(trifluoromethyl)thiazol-2-yl)amino)propan-2-yl)phenyl)pyridin-2-yl)-4-(dimethylamino)but-2-enamide] | 35 | 4.2
CCN(CC)C/C=C/C(=O)Nc1cnc(-c2cccc([C@H](C)C(=O)Nc3ncc(C(F)(F)F)s3)c2)cn1 [Example 114, (S,E)-4-(diethylamino)-N-(5-(3-(1-oxo-1-((5-(trifluoromethyl)thiazol-2-yl)amino)propan-2-yl)phenyl)pyrazin-2-yl)but-2-enamide] | 56 | 12
C=CC(=O)Nc1ncc(-c2cccc([C@H](C)C(=O)Nc3ncc(C(F)(F)F)s3)c2)cc1C#N [Example 124, (S)-N-(3-cyano-5-(3-(1-oxo-1-((5-(trifluoromethyl)thiazol-2-yl)amino)propan-2-yl)phenyl)pyridin-2-yl)acrylamide] | 40 | 

The next lines start with the values.

IC50 (MDA-MB-468 cells) [nM] | IC50 (HepG2 cells) [nM] | Structure (SMILES)
65 |  | CC(C(=O)Nc1ncc(C(F)(F)F)s1)c1cncc(-c2cnc(NC(=O)/C=C/CN3CCOCC3)cn2)c1 (centres unmarked) [Example 74, (E)-4-morpholino-N-(5-(5-(1-oxo-1-((5-(trifluoromethyl)thiazol-2-yl)amino)propan-2-yl)pyridin-3-yl)pyrazin-2-yl)but-2-enamide]
21 | 3 | CC(C(=O)Nc1ncc(C(F)(F)F)s1)c1cncc(-c2cnc(NC(=O)/C=C/CN3CC4CC3CO4)cn2)c1 (centres unmarked) [Example 83, (E)-4-(2-oxa-5-azabicyclo[2.2.1]heptan-5-yl)-N-(5-(5-(1-oxo-1-((5-(trifluoromethyl)thiazol-2-yl)amino)propan-2-yl)pyridin-3-yl)pyrazin-2-yl)but-2-enamide]
52 | 74 | C[C@H](C(=O)Nc1ncc(C(F)(F)F)s1)c1cccc(-c2cnc(NC(=O)/C=C/CN3CCOCC3)cn2)c1 [Example 92, (S,E)-4-morpholino-N-(5-(3-(1-oxo-1-((5-(trifluoromethyl)thiazol-2-yl)amino)propan-2-yl)phenyl)pyrazin-2-yl)but-2-enamide]
59 | 25 | C[C@H](C(=O)Nc1ncc(Cl)s1)c1cccc(-c2cnc(NC(=O)/C=C/CN3CC4CC3CO4)cn2)c1 (stereo partly drawn) [Example 94, (E)-4-(2-oxa-5-azabicyclo[2.2.1]heptan-5-yl)-N-(5-(3-((S)-1-((5-chlorothiazol-2-yl)amino)-1-oxopropan-2-yl)phenyl)pyrazin-2-yl)but-2-enamide]
68 | 19 | C[C@H](C(=O)Nc1ncc(C(F)(F)F)s1)c1cccc(-c2cnc(NC(=O)/C=C/CN3CC4CC3CO4)cn2)c1 (stereo partly drawn) [Example 96, (E)-4-(2-oxa-5-azabicyclo[2.2.1]heptan-5-yl)-N-(5-(3-((S)-1-oxo-1-((5-(trifluoromethyl)thiazol-2-yl)amino)propan-2-yl)phenyl)pyrazin-2-yl)but-2-enamide]
57 | 13 | C[C@H](C(=O)Nc1ncc(C(F)(F)F)s1)c1cccc(-c2cnc(NC(=O)/C=C/CN3CCCC3)cn2)c1 [Example 102, (S,E)-N-(5-(3-(1-oxo-1-((5-(trifluoromethyl)thiazol-2-yl)amino)propan-2-yl)phenyl)pyrazin-2-yl)-4-(pyrrolidin-1-yl)but-2-enamide]
68 | 14 | C[C@H](C(=O)Nc1ncc(C(F)(F)F)s1)c1cccc(-c2cnc(NC(=O)/C=C/CN3CCC3)cn2)c1 [Example 103, (S,E)-4-(azetidin-1-yl)-N-(5-(3-(1-oxo-1-((5-(trifluoromethyl)thiazol-2-yl)amino)propan-2-yl)phenyl)pyrazin-2-yl)but-2-enamide]
75 | 12 | C[C@H](C(=O)Nc1ncc(C(F)(F)F)s1)c1cccc(-c2cnc(NC(=O)/C=C/CN3CC[C@@H](F)C3)cn2)c1 [Example 115, (E)-4-((R)-3-fluoropyrrolidin-1-yl)-N-(5-(3-((S)-1-oxo-1-((5-(trifluoromethyl)thiazol-2-yl)amino)propan-2-yl)phenyl)pyrazin-2-yl)but-2-enamide]
47 |  | COC[C@@H]1CCCN1C/C=C/C(=O)Nc1cnc(-c2cccc([C@H](C)C(=O)Nc3ncc(C(F)(F)F)s3)c2)cn1 [Example 118, (E)-4-((S)-2-(methoxymethyl)pyrrolidin-1-yl)-N-(5-(3-((S)-1-oxo-1-((5-(trifluoromethyl)thiazol-2-yl)amino)propan-2-yl)phenyl)pyrazin-2-yl)but-2-enamide]
51 |  | C[C@H](C(=O)Nc1ncc(C(F)(F)F)s1)c1cccc(-c2cnc(NC(=O)/C=C/CN3CCCCC3)cn2)c1 [Example 120, (S,E)-N-(5-(3-(1-oxo-1-((5-(trifluoromethyl)thiazol-2-yl)amino)propan-2-yl)phenyl)pyrazin-2-yl)-4-(piperidin-1-yl)but-2-enamide]
